Experimental findings from patent publication US20240245694A1, “Tricyclic Compounds and their Uses” (Novartis AG, priority 2022, published 2024) are described below.

One assay deals with SW48 cells. Put plainly: Proliferation assay SW48 (CellTiterGlo, 96 hours). In kind it is cell-based. The settings on record: Homo sapiens. From the text:
(§1) The colon carcinoma cell lines SW48 (RRID: CVCL_1724), HCT 116 (RRID: CVCL_0291) and SNU-407 (RRID: CVCL_5058) were obtained from ATCC. The WRN-knockdown insensitive colon carcinoma cell line DLD-1 (RRID: CVCL_0248) was obtained from the Korean Cell Line Bank (KCLB), and used to generate a derivative in which the endogenous WRN gene copies were knocked out by CRISPR-mediated editing using standard CRISPR methods. The resulting cell line, DLD1-WRN-KO, was used to assess potential off-target compound effects.
(§2) SW48, SNU-407 and DLD1-WRN-KO cells were cultured in growth medium composed of RPMI-1640 (Amimed Cat #1-41F22-1), 2 mM L-Glutamine (Amimed Cat #5-10K50), 10 mM HEPES (Gibco Cat #15630-056), 1 mM sodium pyruvate (Amimed Cat #5-60F00-H), 1× Penicillin-Streptomycin (Amimed Cat #4-01F00-H) and 10% fetal calf serum (Amimed Cat #2-01F30-G, Lot #LB11566P). HCT 116 cells were cultured in growth medium composed of McCoys 5A (Amimed catalog #1-18F01-1), 2 mM L-Glutamine (Amimed Cat #5-10K50), 1× Penicillin-Streptomycin (Amimed Cat #4-01F00-H) and 10% fetal calf serum (Amimed Cat #2-01F30-G, Lot #LB11566P). All cells were maintained at 37° C. in a humidified 5% CO2 incubator.
(§3) Following filtration through a Steriflip-NY 20 μm filter (Millipore Cat #SCNY00020), trypsinized cells were seeded in 100 microliters growth medium at 2′000 (SW48) or 1′500 (SNU-407, DLD1-WRN-KO, HCT 116) cells/well into white, clear-bottom 96-well plates (Costar Cat #3903). Three replicate plates were prepared for each compound treatment condition. In addition, one plate (termed “day 0”) was prepared to quantify the number of viable cells at the time of compound addition. Following overnight incubation at 37° C. in a humidified 5% CO2 atmosphere, eight 3-fold serial dilutions of a given compound stock (obtained at a concentration of 10 mM in DMSO and stored at 4° C.) were dispensed directly into each of the triplicate assay plates using a HP 300D non-contact Digital Dispenser (TECAN). The final concentration of DMSO was normalized to 0.1% in all wells. 96 hours after compound addition, cellular ATP levels as a surrogate for cell viability was assessed following addition of 50 microliters CellTiterGlo (Promega Cat #G7573) reagent and luminescence quantification on a MPLEX multi-mode plate-reader (TECAN) following a 10 minute incubation at room temperature. The number of viable cells in the “day 0” plate were quantified identically on the day of compound addition.
(§4) For data analysis, the assay background signal that was determined in wells containing medium, but no cells, was subtracted from all other data points prior to further calculations. The extent of growth inhibition and potential cell kill was assessed by comparing the ATP levels (measured using CellTiterGlo, Promega) in compound-treated cells with those present at the time of compound addition. To this end, the following conditional concept was programmatically applied in HELIOS, an in-house software applying a multi-step decision tree to arrive at optimal concentration response curve fits (Gubler et al, SLAS DOI: 10.1177/2472555217752140) to calculate % growth (% G) for each compound-treated well: % G=(T−V0)/V0))*100 when T<V0, and % G=(T−V0)/(V−V0)))*100 when T>V0, where V0 is the viability level at time of compound addition, while V and T represent vehicle-control and compound-treated viability levels, respectively, at the end of the compound incubation. 100%, 0% and −100% signify absence of growth inhibition, growth stasis, and complete cell kill, respectively. Compound concentrations leading to half-maximal growth inhibition (G150) and residual cell viability at the highest tested compound concentration (Data (cmax), expressed in percent) were routinely calculated. Data analysis can also be carried out using commercially available software designed to derive IC50 values using 4-parameter fits (e.g. GraphPad Prism, XL fit). […]
(In ATP-based viability assays light output follows the ATP content of the culture.)

The next assay relates to DLD1-WRN-KO cells. As to the kind of experiment: Proliferation assay DLD1-WRN-KO (CellTiterGlo, 96 hours), off-target effects. In kind it is cell-based. The conditions noted are these: Homo sapiens.
From the text: as §1, §2, §3, §4

For assay [1], the target named is WRN helicase (core helicase motif aa N517-P1238) (Homo sapiens (Human), UniProt Q14191). Put plainly: WRN ATPase assay (ADP-Glo), DNA dependent ATP hydrolysis. Type of assay: biochemical. The conditions noted are these: 3 hours pre-incubation, 300 micromolar ATP, FLAP26 ssDNA; geometric means of at least 2 determinations. An excerpt: An ATPase assay was set up to measure the DNA dependent ATP hydrolysis activity of WRN helicase. This assay was used also to assess the inhibition properties of compounds of the invention on DNA dependent WRN ATPase activity.
WRN helicase (core helicase motif aa N517-P1238), sequence (Q14191 517-1238): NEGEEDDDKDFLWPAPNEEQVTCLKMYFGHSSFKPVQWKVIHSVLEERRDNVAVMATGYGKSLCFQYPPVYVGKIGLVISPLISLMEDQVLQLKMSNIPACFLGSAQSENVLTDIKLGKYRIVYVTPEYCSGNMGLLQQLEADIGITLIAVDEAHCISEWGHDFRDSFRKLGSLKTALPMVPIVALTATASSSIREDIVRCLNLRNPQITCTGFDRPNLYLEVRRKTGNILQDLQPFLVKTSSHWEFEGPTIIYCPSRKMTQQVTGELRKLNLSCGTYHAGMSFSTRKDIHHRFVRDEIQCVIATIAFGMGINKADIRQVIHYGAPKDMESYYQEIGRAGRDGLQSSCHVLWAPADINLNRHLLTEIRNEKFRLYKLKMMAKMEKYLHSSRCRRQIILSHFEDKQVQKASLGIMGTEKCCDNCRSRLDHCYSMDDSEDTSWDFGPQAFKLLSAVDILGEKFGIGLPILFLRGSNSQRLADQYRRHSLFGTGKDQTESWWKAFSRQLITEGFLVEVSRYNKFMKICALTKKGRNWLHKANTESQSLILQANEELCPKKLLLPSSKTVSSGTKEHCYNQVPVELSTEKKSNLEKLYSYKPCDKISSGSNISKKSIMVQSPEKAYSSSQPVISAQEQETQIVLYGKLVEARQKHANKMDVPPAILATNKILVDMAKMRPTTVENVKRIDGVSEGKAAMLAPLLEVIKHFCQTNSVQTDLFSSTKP
The core helicase motif of the WRN protein (aa N517-P1238) was produced for this assay (protein production as described above). A 45 oligonucleotide sequence called “FLAP26” as described by Brosh et al., 2009, DOI: 10.1074/jbc.M111446200 ([…]; SEQ ID NO: 2) was purchased from IDT (Integrated DNA Technologies, Leuven, Belgium) and used as single strand DNA substrate. The ADP-Glo assay kit (Promega, Madison, WI) allowing the quantification of ADP produced in ATP hydrolysis reactions was used for setting up this assay. Time course experiments were first performed in order to determine the best enzymatic assay conditions (including buffer conditions, reaction time and concentrations of protein, ATP and DNA substrates). A typical reaction consists of 10 nM WRN protein, 0.2 nM FLAP26, and 300 micromolar ATP in the following assay buffer: 30 mM Tris pH7.5, 2 mM MgCl2, 0.02% BSA, 50 mM NaCl, 0.1% pluronic F127 prepared in DNAse free water.
To evaluate the inhibition properties of compounds of the invention, serial dilutions were prepared in DMSO (10 half log dilutions from a 10 mM DMSO solution). 50 nanoliters of each concentration was pre-incubated for 3 hours in a 384 small volume assay plate (Greiner #784075) with 2.5 microliters of a 20 nM WRN helicase protein in assay buffer with 600 micromolar ATP. Control wells were included with a “high control” (no inhibition), containing DMSO with no test compound, and “low controls” (maximal inhibition), containing buffer without protein. The reaction was started by addition of 2.5 microliters of FLAP26 at 0.4 nM and incubated for 30 minutes at room temperature. The reaction was stopped with the addition of 5 microliters of the first ADP-Glo reagent and incubated for one hour to remove the excess amount of ATP. Afterwards, 10 microliters of ATP detection reagent was added and incubated for an additional hour before reading. Luminescence output was recorded using Tecan 1000 reader, with 5 minutes delay before reading. Each concentration of compound was tested in duplicates in the assay plate.
Data analysis was carried out using an in-house developed software (Novartis Helios software application, Novartis Institutes for BioMedical Research, unpublished) using the methods described by Formenko et al., 2006, DOI: 10.1016/j.cmpb.2006.01.008. Following normalization of activity values for the wells to % inhibition (% inhibition=[(high control-sample)/(high control-low control)]×100), IC50 fitting was carried out from the duplicate determinations present on each plate according to [4]. Data analysis can also be carried out using commercially available software designed to derive IC50 values using 4-parameter fits (e.g. GraphPad Prism, XL fit). The reported IC50 values are the geometrical means of at least 2 independent replicates.
(In general: In ADP-Glo the light output rises with the ADP produced.)

Each structure is given as a SMILES string.

By GI50 is commonly meant the concentration at which growth is held to half of that of the control. A high value points to less potent growth inhibition. In general, IC50 refers to the concentration needed to halve the response being measured. Higher therefore signals weaker potency in that assay. Regarding `Cc1ncnc(C(=O)N2CCN(c3c4n(c5nc(C6=CCOCC6)nn5c3=O)[C@H](C(=O)Nc3ccc(C(F)(F)F)cc3Cl)C[C@H]4C)CC2)c1O` [Example 14D, (7R,9S)—N-(2-chloro-4-(trifluoromethyl)phenyl)-2-(3,6-dihydro-2H-pyran-4-yl)-6-(4-(5-hydroxy-6-methylpyrimidine-4-carbonyl)piperazin-1-yl)-7-methyl-5-oxo-5,7,8,9-tetrahydropyrrolo[1,2-c][1,2,4]triazolo[1,5-a]pyrimidine-9-carboxamide], the GI50 with SW48 cells is 700 nM; in the assay with DLD1-WRN-KO cells, greater than 10000 nM. Besides, the IC50 in assay [1] came out at 1000 nM.

With `Cc1ncnc(C(=O)N2CCN(c3c4n(c5nc(C6=CCOCC6)nn5c3=O)[C@@H](C(=O)Nc3ccc(C(F)(F)F)cc3Cl)C[C@@H]4C)[C@H]3CC[C@@H]32)c1O` [Example 21C, (7S,9R)—N-(2-chloro-4-(trifluoromethyl)phenyl)-2-(3,6-dihydro-2H-pyran-4-yl)-6-((1S,6S)-5-(5-hydroxy-6-methylpyrimidine-4-carbonyl)-2,5-diazabicyclo[4.2.0]octan-2-yl)-7-methyl-5-oxo-5,7,8,9-tetrahydropyrrolo[1,2-c][1,2,4]triazolo[1,5-a]pyrimidine-9-carboxamide], the GI50 in the assay on SW48 cells was 10 nM; with DLD1-WRN-KO cells, greater than 10000 nM. The compound further showed an IC50 in assay [1] of 40 nM.

For the compound `C[C@@H]1C[C@H](C(=O)Nc2ccc(C(F)(F)F)cc2Cl)n2c1c(N1CCN(C(=O)c3ncccc3O)CC1)c(=O)n1nc(C3=CCOCC3)nc21` [Example 11, (7R,9R)—N-(2-chloro-4-(trifluoromethyl)phenyl)-2-(3,6-dihydro-2H-pyran-4-yl)-6-(4-(3-hydroxypicolinoyl)piperazin-1-yl)-7-methyl-5-oxo-5,7,8,9-tetrahydropyrrolo[1,2-c][1,2,4]triazolo[1,5-a]pyrimidine-9-carboxamide], the values for the GI50 with SW48 cells and in the assay on DLD1-WRN-KO cells were 40 nM and greater than 10000 nM, respectively. Further, the IC50 in assay [1] was found to be 50 nM.

`Cc1ncnc(C(=O)N2CCN(c3c4n(c5nc(N6CCOCC6)nn5c3=O)[C@@H](C(=O)Nc3ccc(C(F)(F)F)cc3Cl)C[C@@H]4C)CC2)c1O` [Example 2C, (7S,9R)—N-(2-chloro-4-(trifluoromethyl)phenyl)-6-(4-(5-hydroxy-6-methylpyrimidine-4-carbonyl)piperazin-1-yl)-7-methyl-2-morpholino-5-oxo-5,7,8,9-tetrahydropyrrolo[1,2-c][1,2,4]triazolo[1,5-a]pyrimidine-9-carboxamide]: the GI50 with SW48 cells was 1000 nM; in the assay on DLD1-WRN-KO cells it was greater than 10000 nM. Besides, the IC50 in assay [1] was 100 nM.

As to `C[C@@H]1C[C@H](C(=O)Nc2ccc(C(F)(F)F)cc2Cl)n2c1c(N1CCN(C(=O)c3c(O)ccc4nccn34)CC1)c(=O)n1nc(C3=CCOCC3)nc21` [Example 9, (7R,9R)—N-(2-chloro-4-(trifluoromethyl)phenyl)-2-(3,6-dihydro-2H-pyran-4-yl)-6-(4-(6-hydroxyimidazo[1,2-a]pyridine-5-carbonyl)piperazin-1-yl)-7-methyl-5-oxo-5,7,8,9-tetrahydropyrrolo[1,2-c][1,2,4]triazolo[1,5-a]pyrimidine-9-carboxamide], the GI50 is 60 nM in the assay with SW48 cells and greater than 10000 nM in the assay on DLD1-WRN-KO cells. The compound further yielded an IC50 in assay [1] of 50 nM.

Regarding `Cc1cc(C(F)(F)F)ccc1NC(=O)[C@H]1C[C@@H](C)c2c(N3CCN(C(=O)c4ncnc(C)c4O)CC3)c(=O)n3nc(C4=CCOCC4)nc3n21` [Example 17, (7R,9R)-2-(3,6-dihydro-2H-pyran-4-yl)-6-(4-(5-hydroxy-6-methylpyrimidine-4-carbonyl)piperazin-1-yl)-7-methyl-N-(2-methyl-4-(trifluoromethyl)phenyl)-5-oxo-5,7,8,9-tetrahydropyrrolo[1,2-c][1,2,4]triazolo[1,5-a]pyrimidine-9-carboxamide], the figures for the GI50 in the assay with SW48 cells and in the assay with DLD1-WRN-KO cells were 20 nM and greater than 10000 nM, respectively. In addition, 60 nM corresponded to half-maximal inhibition in assay [1] (IC50).

As to `C[C@@H]1C[C@H](C(=O)Nc2ccc(C(F)(F)F)cc2Cl)n2c1c(N1CCN(C(=O)c3ncc4c(c3O)OCC4)CC1)c(=O)n1nc(C3=CCOCC3)nc21` [Example 5A, (7R,9R)—N-(2-chloro-4-(trifluoromethyl)phenyl)-2-(3,6-dihydro-2H-pyran-4-yl)-6-(4-(7-hydroxy-2,3-dihydrofuro[3,2-c]pyridine-6-carbonyl)piperazin-1-yl)-7-methyl-5-oxo-5,7,8,9-tetrahydropyrrolo[1,2-c][1,2,4]triazolo[1,5-a]pyrimidine-9-carboxamide], the GI50 in the assay on SW48 cells is 30 nM; with DLD1-WRN-KO cells it was greater than 10000 nM. This compound gave an IC50 in assay [1] of 20 nM.

Regarding `Cc1cc(F)c(O)c(C(=O)N2CCN(c3c4n(c5nc(C6=CCOCC6)nn5c3=O)[C@@H](C(=O)Nc3ccc(C(F)(F)F)cc3Cl)C[C@H]4C)CC2)n1` [Example 8, (7R,9R)—N-(2-chloro-4-(trifluoromethyl)phenyl)-2-(3,6-dihydro-2H-pyran-4-yl)-6-(4-(4-fluoro-3-hydroxy-6-methylpicolinoyl)piperazin-1-yl)-7-methyl-5-oxo-5,7,8,9-tetrahydropyrrolo[1,2-c][1,2,4]triazolo[1,5-a]pyrimidine-9-carboxamide], the figures for the GI50 with SW48 cells and in the assay with DLD1-WRN-KO cells were 20 nM and greater than 10000 nM, respectively. In assay [1], the midpoint of inhibition, the IC50, lay at 20 nM.
